# Where a name gives a salt, the structure may show the parent alone.
# Assay: in vitro
# Conditions: rat, gh3-tre-luc cells, AC50 (uM) modified / 1000
row,SMILES,CC50 at 24 h [µM]
1,CC(C)C(=O)O [2-Methylpropanoic acid],> 90
2,COC1=C(OC)C(=O)C(C/C=C(\C)CC/C=C(\C)CC/C=C(\C)CC/C=C(\C)CC/C=C(\C)CC/C=C(\C)CC/C=C(\C)CC/C=C(\C)CC/C=C(\C)CCC=C(C)C)=C(C)C1=O [Ubidecarenone],> 50
3,"C[N+](C)(C)CCCCCC[N+](C)(C)C [N,N,N,N',N',N'-Hexamethylhexane-1,6-diaminium]",> 50
4,"BrC/C=C/CBr [(E)-1,4-Dibromo-2-butene]",> 20
5,CCCCCCCCCCCCCN1CC(C)OC(C)C1 (stereo not shown) [Tridemorph],> 90
6,C[C@]12CC[C@H]3[C@@H](CCC4=CC(=O)CC[C@@H]43)[C@@H]1CC[C@@H]2OC(=O)CCc1ccccc1 [Nandrolone phenpropionate],> 50
7,"O=[N+]([O-])c1ccccc1-c1ccccc1 [2-Nitro-1,1'-biphenyl]",> 90
8,Oc1ccc(Cl)c2cccnc12 [Cloxyquin],7.71
9,"FC(F)(F)c1ccc(Cl)cc1Cl [2,4-Dichlorobenzotrifluoride]",> 90
10,ClC=C(Cl)Cl [Trichloroethylene],> 90
11,Nc1nc2c(c(=O)[nH]1)N(C=O)C(CNc1ccc(C(=O)N[C@@H](CCC(=O)O)C(=O)O)cc1)CN2 (stereo partly shown) [Calcium folinate pentahydrate],> 20
12,COc1cc(-c2ccc(=O)[nH]n2)ccc1OC(F)F [Zardaverine],> 50
13,C1CCCNCC1 [Hexamethyleneimine],> 100
14,CCCCN(CCC(=O)OCC)C(C)=O [Ethyl 3-(N-butylacetamido)propionate],> 90
15,N=C(N)NCC1COc2ccccc2O1 (stereo not shown) [Guanoxan],> 50
16,COC(C(=O)O)c1ccccc1 (stereo not shown) [Methoxyphenylacetic acid],> 90
17,CCN(CC)CCOC(=O)C1(c2ccccc2)CCCC1 [Caramiphen edisylate],43.2
18,C[Si](C)(C)O[Si](O)(O)O [Trimethylsilyl silicate],> 90
19,CCCCNS(=O)(=O)c1ccccc1 [N-Butylbenzenesulfonamide],> 90
20,O=C1CN2Cc3c(ccc(Cl)c3Cl)N=C2N1 [Anagrelide hydrochloride],> 50
21,CN(C)CCc1c[nH]c2ccc(Cn3cncn3)cc12 [Rizatriptan],> 50
22,O=C1OC(=O)C2CCCCC12 (stereo not shown) [Hexahydrophthalic anhydride],> 90
23,CCN(CC)CCOC(=O)c1ccc(N)cc1Cl [Chloroprocaine hydrochloride],> 50
24,Cc1ncc(CO)c(C=O)c1O [Pyridoxal],> 50
25,IC(I)I [Iodoform],> 90
26,"COCCOCCOCCOCCOCCO [2,5,8,11,14-Pentaoxahexadecan-16-ol]",> 90

row,SMILES,CC50 at 24 h [µM]
1,"C(CCOCC1CO1)COCC1CO1 (stereo not shown) [1,4-Butanediol diglycidyl ether]",> 90
2,CCSCC [Diethyl sulfide],> 100
3,CC(=O)Oc1ccc(C(C)=O)cc1 [4-Acetylphenyl acetate],> 100
4,Cc1[nH]c(=O)n(C(C)(C)C)c(=O)c1Cl [Terbacil],> 90
5,CCOC(=O)C(C)Oc1ccc(Oc2cnc3cc(Cl)ccc3n2)cc1 (stereo not shown) [Quizalofop-ethyl],> 90
6,COS(=O)(=O)OC [Dimethyl sulfate],> 90
7,"Nc1ccc(N)c(Cl)c1 [2-Chloro-1,4-diaminobenzene sulfate]",> 90
8,"Nc1ccc(-c2ccc(N)c(N)c2)cc1N [3,3',4,4'-Tetraaminobiphenyl tetrahydrochloride]",64.7
9,Fc1ccccc1[C@@H](F)COC1CCC(Nc2ncnc3[nH]ncc23)CC1 (stereo partly shown) [MK-968],82.7
10,CC(=O)NCCO [N-(2-Hydroxyethyl)acetamide],> 90
11,CN(C)C(=O)Nc1ccccc1 [Fenuron],> 90
12,CN1CCCC1=O [N-Methyl-2-pyrrolidone],> 90
13,O=C(O)[C@@H]1C[C@H](CP(=O)(O)O)CCN1 (racemic) [Selfotel],> 50
14,C=N[C@@H](C(=O)N[C@@H]1C(=O)N2[C@@H]1SC(C)(C)[C@@H]2C(=O)O)c1ccccc1 [Metampicillin sodium],> 50
15,CC(C)c1ccc(C(=O)NC(=N)N)cc1S(C)(=O)=O [Cariporide mesylate],> 70
16,N[C@@H](COP(=O)(O)O)C(=O)O [Dexfosfoserine],> 50
17,NC[C@H]1O[C@H](O[C@H]2[C@H](O[C@@H]3O[C@H](CO)[C@@H](O)[C@H]3O)[C@@H](O)[C@H](N)C[C@@H]2N)[C@H](N)[C@@H](O)[C@@H]1O [Ribostamycin sulfate],> 20
18,OCc1ccco1 [Furfuryl alcohol],> 90
19,Cc1cc(-c2ccc(N=Nc3cc(S(=O)(=O)O)c4ccccc4c3N)c(C)c2)ccc1N=Nc1cc(S(=O)(=O)O)c2ccccc2c1N [C.I. Direct Red 2],62.5
20,Cc1cc(C)cc(OCC2CNC(=O)O2)c1 (stereo not shown) [Metaxalone],> 50
21,Cc1ccnc(N)c1 [4-Methylpyridin-2-amine],> 90
22,Nc1ccc2cc(S(=O)(=O)O)ccc2c1 [6-Aminonaphthalene-2-sulfonic acid],> 90
23,Cc1cccc(C)c1NC(=O)C1CCCCN1C (stereo not shown) [Mepivicaine hydrochloride],> 50
24,CC(=O)NC1(c2cccc(F)c2)CCN(CC[C@@]2(c3ccc(Cl)c(Cl)c3)CN(c3ccccc3)C(=O)CO2)CC1 [SAR102779],6.31
25,"CC(CN=Cc1ccccc1O)N=Cc1ccccc1O (stereo not shown) [N,N'-Disalicylidene-1,2-diaminopropane]",> 90
26,O=C(O)c1cc(Oc2ccc(C(F)(F)F)cc2Cl)ccc1[N+](=O)[O-] [Acifluorfen-sodium],> 90

row,SMILES,CC50 at 24 h [µM]
1,CCCCOCCOCCSC#N [2-(2-Butoxyethoxy)ethyl thiocyanate],> 100
2,"CCOc1ccc(OCC)c(Cl)c1 [2-Chloro-1,4-diethoxybenzene]",> 90
3,Cl/C(=C\n1cncn1)c1ccc(Cl)cc1Cl [Loreclezole hydrochloride],> 50
4,CCCCNc1cc(C(=O)O)cc(S(N)(=O)=O)c1Oc1ccccc1 [Bumetanide],> 20
5,N#Cc1ccccc1 [Benzonitrile],> 90
6,OC[C@H]1O[C@@H](O[C@@H]2[C@@H](CO)OC(O)(CO)[C@H]2O)[C@H](O)[C@@H](O)[C@H]1O (mixture of isomers) [Lactulose],> 50
7,"N#CCCC(Br)(C#N)CBr (stereo not shown) [1,2-Dibromo-2,4-dicyanobutane]",16.2
8,CC[C@@H]1C(=O)OC[C@@H]1Cc1cncn1C [Pilocarpine],> 50
9,Oc1ccc2ccccc2c1 [2-Naphthalenol],> 90
10,Cc1ccc(O)c([C@H](CCN(C(C)C)C(C)C)c2ccccc2)c1 [Tolterodine],18.9
11,COc1cc(C(=S)N2CCOCC2)ccc1O [Vanitiolide],> 50
12,CC(C)OC(=O)CCCCC(=O)OC(C)C [Diisopropyl adipate],> 90
13,C=CC1CC=CCC1 (stereo not shown) [4-Vinylcyclohexene],> 90
14,O=C(NC(=O)c1c(F)cccc1F)Nc1cc(Cl)c(F)c(Cl)c1F [Teflubenzuron],> 80
15,CCOC(=O)COc1ccc(C)cc1 [(4-Methylphenoxy) acetic acid ethyl ester],> 90
16,"CC(Cc1ccc(C(C)(C)C)cc1)CN1C[C@@H](C)O[C@@H](C)C1 (stereo partly drawn) [(2R,6S)-Fenpropimorph]",> 90
17,"c1ccc2cc3c4ccccc4c4ccccc4c3cc2c1 [Dibenz[a,c]anthracene]",> 90
18,"C=CCCCCCCC=C [1,9-Decadiene]",> 90
19,CC[C@]1(O)C[C@H]2CN(CCc3c([nH]c4ccccc34)[C@@](C(=O)OC)(c3cc4c(cc3OC)N(C=O)[C@H]3[C@@](O)(C(=O)OC)[C@H](OC(C)=O)[C@]5(CC)C=CCN6CC[C@]43[C@@H]65)C2)C1 [Vincristine],0.12
20,"Cc1cc(C)cc(C)c1 [1,3,5-Trimethylbenzene]",> 90
21,CC(C)(Sc1cc(C(C)(C)C)c(O)c(C(C)(C)C)c1)Sc1cc(C(C)(C)C)c(O)c(C(C)(C)C)c1 [Probucol],> 20
22,Clc1cccc(C(c2ccc3[nH]cnc3c2)n2ccnc2)c1 (stereo not shown) [Liarozole hydrochloride],> 50
23,O=C(Cl)c1ccc([N+](=O)[O-])cc1 [4-Nitrobenzoyl chloride],> 90
24,"Cc1cc(O)c(Cl)cc1C [2-Chloro-4,5-dimethylphenol]",> 90

# Same assay, conditions: rat, gh3-tre-luc cells, AC50 (uM) modified / 1000, Tox21_110001=Tox21_201650; viability, 1 nM T3 present, 24 h
row,SMILES,CC50 at 24 h [µM]
1,Nc1cccnc1 [3-Pyridinamine],> 90

# Same assay, conditions: rat, gh3-tre-luc cells, AC50 (uM) modified / 1000, Tox21_110001=Tox21_300787; viability, 1 nM T3 present, 24 h
row,SMILES,CC50 at 24 h [µM]
1,CC[C@H](C)[C@H]1O[C@]2(C=C[C@@H]1C)C[C@@H]1C[C@@H](C/C=C(\C)[C@@H](O[C@H]3C[C@H](OC)[C@@H](O[C@H]4C[C@H](OC)[C@@H](NC)[C@H](C)O4)[C@H](C)O3)[C@@H](C)/C=C/C=C3\CO[C@@H]4[C@H](O)C(C)=C[C@@H](C(=O)O1)[C@]34O)O2 [Emamectin benzoate],1.42

# Same assay, conditions: rat, gh3-tre-luc cells, AC50 (uM) modified / 1000, Tox21_110001=Tox21_300793; viability, 1 nM T3 present, 24 h
row,SMILES,CC50 at 24 h [µM]
1,CON(C)C(=O)Nc1ccc(Br)c(Cl)c1 [Chlorbromuron],> 90

# Same assay, conditions: rat, gh3-tre-luc cells, AC50 (uM) modified / 1000, Tox21_110001=Tox21_301333; viability, 1 nM T3 present, 24 h
row,SMILES,CC50 at 24 h [µM]
1,CCCN(CCCl)c1c([N+](=O)[O-])cc(C(F)(F)F)cc1[N+](=O)[O-] [Fluchloralin],> 90

# Same assay, conditions: rat, gh3-tre-luc cells, AC50 (uM) modified / 1000, Tox21_110001=Tox21_302005; viability, 1 nM T3 present, 24 h
row,SMILES,CC50 at 24 h [µM]
1,CCOC(=O)N(C)C(=O)CSP(=S)(OCC)OCC [Mecarbam],> 90

# Same assay, conditions: rat, gh3-tre-luc cells, AC50 (uM) modified / 1000, Tox21_110001=Tox21_302103; viability, 1 nM T3 present, 24 h
row,SMILES,CC50 at 24 h [µM]
1,CN(C)c1ccc(C(c2ccccc2)c2ccc(N(C)C)cc2)cc1 [Leucomalachite green],> 90

# — PMC6792352, “Limited Chemical Structural Diversity Found to Modulate Thyroid Hormone Receptor in the Tox21 Chemical Library” (Environmental Health Perspectives, 2019)
